{
  "source": "paper PMC7688046",
  "about": "(ACS Pharmacology & Translational Science, 2020)",
  "key": {"[1]": {"molecular_target": "SARS-CoV-2 spike protein RBD (RBD-Fc) binding to human ACE2 (ACE2-His-Avi) (Homo sapiens, UniProt Q9BYF1)", "sequence (Q9BYF1 18-740)": "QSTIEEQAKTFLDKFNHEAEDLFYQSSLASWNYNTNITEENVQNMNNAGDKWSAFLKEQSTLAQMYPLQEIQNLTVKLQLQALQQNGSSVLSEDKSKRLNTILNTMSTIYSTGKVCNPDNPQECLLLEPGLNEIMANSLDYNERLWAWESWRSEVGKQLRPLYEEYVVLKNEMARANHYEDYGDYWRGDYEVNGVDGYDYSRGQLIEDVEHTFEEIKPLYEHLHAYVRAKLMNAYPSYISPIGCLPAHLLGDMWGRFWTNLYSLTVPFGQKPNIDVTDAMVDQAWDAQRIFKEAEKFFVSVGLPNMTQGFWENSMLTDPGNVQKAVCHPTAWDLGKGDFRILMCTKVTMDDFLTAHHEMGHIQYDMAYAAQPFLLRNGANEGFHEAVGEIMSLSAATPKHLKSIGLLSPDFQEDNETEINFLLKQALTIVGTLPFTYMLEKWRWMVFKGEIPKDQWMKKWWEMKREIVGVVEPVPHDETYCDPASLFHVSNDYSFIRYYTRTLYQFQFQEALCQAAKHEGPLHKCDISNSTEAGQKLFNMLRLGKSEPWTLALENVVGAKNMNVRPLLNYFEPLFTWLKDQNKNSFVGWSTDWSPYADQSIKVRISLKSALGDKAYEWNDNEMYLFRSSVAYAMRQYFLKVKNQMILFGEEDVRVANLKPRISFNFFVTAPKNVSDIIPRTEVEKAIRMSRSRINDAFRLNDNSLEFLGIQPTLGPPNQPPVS", "assay": "biochemical", "parameters": "species or system human ACE2 / SARS-CoV-2 spike"}, "cytopathic effects (CPE)": {"test_system": "cytopathic effects (CPE)", "conditions": "at current writing; ref NCATS OpenData Portal; cited from earlier work"}, "[2]": {"test_system": "biotinylated rabbit IgG (Fc-protein A and streptavidin–biotin interactions)", "assay": "Biotin-IgG counterassay", "conditions": "cherry-pick hit confirmation"}, "ACE2": {"test_system": "ACE2", "conditions": "at current writing; ref NCATS OpenData Portal; cited from earlier work"}, "[3]": {"test_system": "streptavidin donor beads / biotin-BSA acceptor beads", "conditions": "primary counterscreen"}, "[4]": {"molecular_target": "RBD-Fc interaction with ACE2-His-Avi (Homo sapiens, UniProt Q9BYF1)", "sequence (Q9BYF1 18-740)": "as above", "format": "binding, human ACE2 / SARS-CoV-2 spike"}},
  "data": [
    {"compound": "O=C(O[C@@H]1O[C@@H]2COC(=O)c3cc(O)c(O)c(O)c3-c3c(cc(O)c(O)c3O)C(=O)O[C@H]([C@H]1O)[C@@H]2O)c1cc(O)c(O)c(O)c1", "note": "[Corilagin]", "values": [
      {"measurement": "IC50", "setting": "[1]", "result": 5.5, "unit": "µM"},
      {"measurement": "activity in blocking cytopathic effects (CPE)", "setting": "cytopathic effects (CPE)", "result": "no activity"},
      {"measurement": "activity in biotin-IgG counter assay", "setting": "[2]", "result": "not the biotin-IgG counter assay"},
      {"measurement": "activity in the ACE2 enzymatic assay", "setting": "ACE2", "result": "weak activity"}
    ]},
    {"compound": "CC(C)(O/N=C(\\C(=O)N[C@@H]1C(=O)N2C(C(=O)[O-])=C(C[n+]3ccccc3)CS[C@H]12)c1csc(N)n1)C(=O)O", "note": "[ceftazidime]", "values": [
      {"measurement": "ACE2–RBD binding inhibition in the primary AlphaLISA screen", "setting": "[1]", "result": "no significant activity"},
      {"measurement": "activity in the TruHits counterscreen", "setting": "[3]", "result": "no significant activity"}
    ]},
    {"compound": "CCOC(=O)[C@H](CCc1ccccc1)N[C@@H](C)C(=O)N1CCC[C@H]1C(=O)O", "note": "[enalapril]", "values": [
      {"measurement": "ACE2–RBD binding inhibition in the primary AlphaLISA screen", "setting": "[1]", "result": "none showed ACE2–RBD binding inhibition"}
    ]},
    {"compound": "NCCCC[C@H](N[C@@H](CCc1ccccc1)C(=O)O)C(=O)N1CCC[C@H]1C(=O)O", "note": "[lisinopril]", "values": [
      {"measurement": "ACE2–RBD binding inhibition in the primary AlphaLISA screen", "setting": "[1]", "result": "none showed ACE2–RBD binding inhibition"}
    ]},
    {"compound": "CCOC(=O)[C@H](CCc1ccccc1)N[C@@H](C)C(=O)N1Cc2cc(OC)c(OC)cc2C[C@H]1C(=O)O", "note": "[moexipril]", "values": [
      {"measurement": "ACE2–RBD binding inhibition in the primary AlphaLISA screen", "setting": "[1]", "result": "none showed ACE2–RBD binding inhibition"}
    ]},
    {"compound": "CCC(CC)COC(=O)[C@H](C)N[P@](=O)(OC[C@H]1O[C@@](C#N)(c2ccc3c(N)ncnn23)[C@H](O)[C@@H]1O)Oc1ccccc1", "note": "[remdesivir]", "values": [
      {"measurement": "ACE2–RBD binding inhibition in the primary AlphaLISA screen", "setting": "[1]", "result": "no significant activity"},
      {"measurement": "activity in the TruHits counterscreen", "setting": "[3]", "result": "no significant activity"}
    ]},
    {"compound": "ACE2-His", "values": [
      {"measurement": "competition for ACE2–RBD binding, AlphaLISA signal", "setting": "[4]", "result": "dose-dependent signal loss"}
    ]}
  ]
}
